{
  "source": "paper PMC12265377",
  "about": "“CC48 a new CB2R agonist/FAAH inhibitor dual drug blocks gastric cancer progression and overcomes paclitaxel resistance” (Journal of Experimental & Clinical Cancer Research : CR, 2025)",
  "key": {"[1]": {"assay": "Body weight, serum biochemistry and urinalysis in treated mice", "conditions": "GP2 and GP3 (10 and 20 mg/kg)", "protocol": "All the animals were fed ad libitum with complete mouse feed, and water was provided ad libitum. The body weight for each animal was recorded weekly, starting from day 0 until the end of the study.\nPhysical observations of health status, including visual checks on the mice general appearance (e.g. fur and activity levels/responsiveness), were made daily. On day 45, the animals were individually housed in metabolic cages for 24 h, with free access to water and food, in order to perform urine collection and urinalysis. Immediately before metabolic cage housing, animals were subjected to a water load (10 mL/kg by oral gavage) in order to allow urine volume normalization. In addition, blood samples were taken from the submandibular vein after isoflurane anesthesia and before sacrifice at the end of the study period. The blood was collected in Eppendorf tubes and then centrifuged at about 8,000 rpm for 15 min at 4 °C for serum collection."}, "[2]": {"tested_on": "NCI-N87_LUC cell line", "assay": "Mouse model by intraperitoneal NCI-N87_LUC inoculation, tumor growth by IVIS", "type": "in vivo, CD1-nude female mice", "conditions": "for BLI measurement, individual animals: listed as FI-5; for tumor volume vs control group (vehicle): day 41", "procedure": "EighteenCD1-nude female mice(Charles River Laboratories International, Inc.) were intraperitoneally injected with the NCI-N87 cell line, stable transfected with the luciferase gene (NCl-N87_LUC) at a concentration of 2 × 10^6/100µL cells. Experimental groups and treatments are described in the table below (Table 1). Two concentrations of the CC48 molecule, 10 and 20 mg/Kg, were tested in two experimental groups. A third group was treated with the vehicle, consisting of20% DMSO, 10% Cyclodextrin and distilled water. […] The staff involved in the study recorded all the observations on recording forms. The data concerning animals’ body weight, clinical signs, feed intake and TP intake were recorded on the experimental register. All the corrections on data collection forms were made according to the Test Facility SOPs. All derived values, of registered tumor volumes, which are reported in the Tables S2 and S3 and relative graphs, such as mean and standard deviation, represent the rounded-up results of calculation performed with Microsoft Excel. Dunnett’s multiple comparison statistical test was applied."}, "[3]": {"tested_on": "CB1R", "set-up": "method as in PMID 36657299", "conditions": "cited from earlier work"}},
  "note": "“And” between values parts separate entries of the source, which are not always exact repeats. Equal entries are not always repeated.",
  "data": [
    {"smiles": "O=C(NC12CC3CC(CC(C3)C1)C2)c1ccccc1OCc1ccccc1", "note": "[CC48]", "values": [
      {"measurement": "body weight vs vehicle", "setting": "[1]", "value": "No statistically significant differences were observed"},
      {"measurement": "serum AST, ALT, Cre, UREA and GFR vs vehicle", "setting": "[1]", "value": "No statistically significant differences in biochemical results"},
      {"measurement": "BLI measurement, group MEAN", "setting": "[2]; GP2 10mg/kg, DAY 5, n 5 (outlier ID 7 excluded)", "value": "1,45E+05"},
      {"measurement": "BLI measurement, individual animals", "setting": "[2]; GP2 10mg/kg, DAY 5", "value": "1,32E+06 and 5,58E+05 and 1,13E+05 and 4,14E+04 and 9,93E+03 and 3,23E+03"},
      {"measurement": "BLI measurement, group MEAN", "setting": "[2]; GP2 10mg/kg, DAY 7, n 5", "value": "1,29E+05"},
      {"measurement": "BLI measurement, individual animals", "setting": "[2]; GP2 10mg/kg, DAY 7", "value": "1,55E+06 and 5,41E+05 and 7,10E+04 and 2,79E+04 and 3,30E+03 and 2,39E+03"},
      {"measurement": "BLI measurement, group MEAN", "setting": "[2]; GP2 10mg/kg, DAY 10, n 5", "value": "1,07E+05"},
      {"measurement": "BLI measurement, individual animals", "setting": "[2]; GP2 10mg/kg, DAY 10", "value": "1,30E+06 and 4,73E+05 and 4,20E+04 and 1,70E+04 and 2,56E+03 and 2,69E+03"},
      {"measurement": "BLI measurement, group MEAN", "setting": "[2]; GP2 10mg/kg, DAY 14, n 5", "value": "1,83E+05"},
      {"measurement": "BLI measurement, individual animals", "setting": "[2]; GP2 10mg/kg, DAY 14", "value": "7,07E+05 and 8,53E+05 and 3,80E+04 and 1,58E+04 and 2,68E+03 and 3,22E+03"},
      {"measurement": "BLI measurement, group MEAN", "setting": "[2]; GP2 10mg/kg, DAY 17, n 5", "value": "2,73E+05"},
      {"measurement": "BLI measurement, individual animals", "setting": "[2]; GP2 10mg/kg, DAY 17", "value": "8,99E+05 and 1,29E+06 and 6,23E+04 and 1,12E+04 and 1,95E+03 and 1,85E+03"},
      {"measurement": "BLI measurement, group MEAN", "setting": "[2]; GP2 10mg/kg, DAY 24, n 5", "value": "3,18E+05"},
      {"measurement": "BLI measurement, individual animals", "setting": "[2]; GP2 10mg/kg, DAY 24", "value": "1,09E+06 and 1,51E+06 and 6,35E+04 and 1,11E+04 and 2,24E+03 and 2,96E+03"},
      {"measurement": "BLI measurement, group MEAN", "setting": "[2]; GP2 10mg/kg, DAY 31, n 5", "value": "3,12E+05"},
      {"measurement": "BLI measurement, individual animals", "setting": "[2]; GP2 10mg/kg, DAY 31", "value": "1,51E+06 and 1,43E+06 and 1,11E+05 and 1,60E+04 and 3,40E+03 and 3,65E+03"},
      {"measurement": "BLI measurement, group MEAN", "setting": "[2]; GP2 10mg/kg, DAY 35, n 5", "value": "2,44E+05"},
      {"measurement": "BLI measurement, individual animals", "setting": "[2]; GP2 10mg/kg, DAY 35", "value": "2,93E+06 and 1,06E+06 and 1,41E+05 and 1,56E+04 and 3,01E+03 and 3,50E+03"},
      {"measurement": "BLI measurement, group MEAN", "setting": "[2]; GP2 10mg/kg, DAY 38, n 5", "value": "4,60E+04"},
      {"measurement": "BLI measurement, individual animals", "setting": "[2]; GP2 10mg/kg, DAY 38", "value": "4,74E+06 and 1,04E+05 and 1,11E+05 and 9,13E+03 and 2,90E+03 and 2,69E+03"},
      {"measurement": "BLI measurement, group MEAN", "setting": "[2]; GP2 10mg/kg, DAY 41, n 5", "value": "2,12E+05"},
      {"measurement": "BLI measurement, individual animals", "setting": "[2]; GP2 10mg/kg, DAY 41", "value": "3,93E+06 and 8,93E+05 and 1,54E+05 and 9,95E+03 and 3,19E+03 and 2,28E+03"},
      {"measurement": "tumor volume vs control group (vehicle)", "setting": "[2]; GP2, 10 mg/kg IP every other day, p < 0.01", "value": "substantial and significant decrease in tumor volume"},
      {"measurement": "BLI measurement, group MEAN", "setting": "[2]; GP3 20mg/kg, DAY 5, n 5 (outlier ID 13 excluded)", "value": "2,03E+05"},
      {"measurement": "BLI measurement, individual animals", "setting": "[2]; GP3 20mg/kg, DAY 5", "value": "1,03E+06 and 8,12E+05 and 1,11E+05 and 7,63E+04"},
      {"measurement": "BLI measurement, group MEAN", "setting": "[2]; GP3 20mg/kg, DAY 7, n 5", "value": "1,10E+05"},
      {"measurement": "BLI measurement, individual animals", "setting": "[2]; GP3 20mg/kg, DAY 7", "value": "7,47E+05 and 4,61E+05 and 2,67E+04 and 5,08E+04"},
      {"measurement": "BLI measurement, group MEAN", "setting": "[2]; GP3 20mg/kg, DAY 10, n 5", "value": "8,98E+04"},
      {"measurement": "BLI measurement, individual animals", "setting": "[2]; GP3 20mg/kg, DAY 10", "value": "3,56E+05 and 3,68E+05 and 3,53E+04 and 3,80E+04"},
      {"measurement": "BLI measurement, group MEAN", "setting": "[2]; GP3 20mg/kg, DAY 14, n 5", "value": "1,18E+05"},
      {"measurement": "BLI measurement, individual animals", "setting": "[2]; GP3 20mg/kg, DAY 14", "value": "1,23E+06 and 5,29E+05 and 3,27E+04 and 1,72E+04"},
      {"measurement": "BLI measurement, group MEAN", "setting": "[2]; GP3 20mg/kg, DAY 17, n 5", "value": "1,51E+05"},
      {"measurement": "BLI measurement, individual animals", "setting": "[2]; GP3 20mg/kg, DAY 17", "value": "1,63E+06 and 7,10E+05 and 2,61E+04 and 1,16E+04"},
      {"measurement": "BLI measurement, group MEAN", "setting": "[2]; GP3 20mg/kg, DAY 24, n 5", "value": "2,46E+05"},
      {"measurement": "BLI measurement, individual animals", "setting": "[2]; GP3 20mg/kg, DAY 24", "value": "1,67E+06 and 1,15E+06 and 3,46E+04 and 3,03E+04"},
      {"measurement": "BLI measurement, group MEAN", "setting": "[2]; GP3 20mg/kg, DAY 31, n 5", "value": "2,64E+05"},
      {"measurement": "BLI measurement, individual animals", "setting": "[2]; GP3 20mg/kg, DAY 31", "value": "1,22E+06 and 1,26E+06 and 2,79E+04 and 1,85E+04"},
      {"measurement": "BLI measurement, group MEAN", "setting": "[2]; GP3 20mg/kg, DAY 35, n 5", "value": "3,58E+05"},
      {"measurement": "BLI measurement, individual animals", "setting": "[2]; GP3 20mg/kg, DAY 35", "value": "2,08E+06 and 1,71E+06 and 4,56E+04 and 2,63E+04"},
      {"measurement": "BLI measurement, group MEAN", "setting": "[2]; GP3 20mg/kg, DAY 38, n 5", "value": "2,00E+05"},
      {"measurement": "BLI measurement, individual animals", "setting": "[2]; GP3 20mg/kg, DAY 38", "value": "2,42E+06 and 9,14E+05 and 3,50E+04 and 4,29E+04"},
      {"measurement": "BLI measurement, group MEAN", "setting": "[2]; GP3 20mg/kg, DAY 41, n 5", "value": "2,00E+04"},
      {"measurement": "BLI measurement, individual animals", "setting": "[2]; GP3 20mg/kg, DAY 41", "value": "1,34E+06 and 3,58E+04 and 3,11E+04 and 2,06E+04"},
      {"measurement": "tumor volume vs control group (vehicle)", "setting": "[2]; GP3, 20 mg/kg IP every other day, p < 0.001", "value": "statistically significant difference in the size of the tumor mass"},
      {"measurement": "EC50", "setting": "[3]", "value": 489, "unit": "nM"}
    ]}
  ]
}
